What was measured:
SGLT2 = molecular target: T1, SGLT2 (Homo sapiens, UniProt P31639); experiment: 14C-AMG uptake in BHK cells transfected with SGLT2 (96-well cell-based assay); conditions: 2 mM AMG, 37° C., 90 min
T1 construct: expressed in transfected cells
T1 sequence (P31639 1-672): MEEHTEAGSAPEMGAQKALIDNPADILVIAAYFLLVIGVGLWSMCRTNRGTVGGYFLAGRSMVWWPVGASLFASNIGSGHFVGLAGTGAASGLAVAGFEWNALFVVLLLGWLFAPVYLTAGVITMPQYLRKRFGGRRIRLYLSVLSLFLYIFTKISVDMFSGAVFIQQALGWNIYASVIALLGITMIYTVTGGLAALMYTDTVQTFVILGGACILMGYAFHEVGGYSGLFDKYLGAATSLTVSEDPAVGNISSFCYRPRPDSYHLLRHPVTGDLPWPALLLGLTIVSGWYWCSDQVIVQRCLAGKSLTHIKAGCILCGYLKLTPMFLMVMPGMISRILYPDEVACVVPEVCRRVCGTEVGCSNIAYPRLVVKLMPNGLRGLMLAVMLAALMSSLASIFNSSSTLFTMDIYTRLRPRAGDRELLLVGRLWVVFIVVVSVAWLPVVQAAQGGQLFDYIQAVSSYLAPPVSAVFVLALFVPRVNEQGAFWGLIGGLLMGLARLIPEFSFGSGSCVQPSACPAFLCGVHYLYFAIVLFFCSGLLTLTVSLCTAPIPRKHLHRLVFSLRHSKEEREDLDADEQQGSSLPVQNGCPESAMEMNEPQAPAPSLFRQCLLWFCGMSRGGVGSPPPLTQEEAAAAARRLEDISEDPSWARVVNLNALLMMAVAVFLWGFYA
Description: (§1) The compounds can be tested for their SGLT inhibition properties by means of BHK cells expressing SGLT1 and SGLT2. The production of the cells and the testing can be carried out as described below.
To construct the SGLT2 expression vector (KL224), the SLC5A2 gene (homologous to NM_003041) was amplified from a cDNA library using standard PCR technology and cloned over NheI/XhoI sites into PCI-neo expression vector (Promega) containing neomycin as a selection marker. In this vector, transcription uses the enhancer/promoter of human cytomegalovirus and the SV40 polyadenylation signal.
(§2) The final vector KL224 together with an additional vector containing a dihydrofolate reductase gene as a selection marker was introduced into cells. Transfection into BHK21 cells (ATCC CCL-10), cultivated in DMEM medium (GIBCO/BRL), supplemented with 10% foetal calf serum (FCS) and 20 mM glutamine, was carried out using calcium phosphate transfections according to Graham, F. L. and van der Ebb, A. J. (1973), Virology 52: 456 with 5-20 μg of uncut plasmids for 10^7 cells. Stable transfectants were selected in medium containing 1 mg/ml of G418 (GIBCO/BRL) and 20-5000 nM methotrexate as final concentration, where only cells which expressed the neomycin gene and overexpressed the dhfr gene were able to grow. After growth for 2-3 weeks, the cells were cloned (0.5 cells/well) and the clones were investigated for SGLT expression in radioactivity uptake tests.
(§3) The uptake of ^14C-α-methyl-D-glucopyranoside (AMG) in, for example, Xenopus oocytes injected with the corresponding cRNA has been described in principle (for example Wen-Sen Lee et al. (1994), J. Biol. Chem. 269, 12032-12039; Guofeng You et al. (1995), J. Biol. Chem. 270, 29365-29371).
(§4) A 96-well cell-based assay was developed and adapted to HTS requirements:
(§5) BHK cells (transfected with SGLT1 or SGLT2) were seeded into 96-well microtitre plates (Cultureplates, Perkin Elmer). After at least 24 h, medium was removed, and the cell layer was washed with assay buffer (140 mM NaCl, 2 mM KCl, 1 mM CaCl2, 1 mM MgCl2, 10 mM HEPES, 5 mM Tris, adjusted to pH 7.4 using 1 M KOH). After addition of 40 μl of assay buffer, 50 μl of AMG (50 μM for SGLT1 and 2 mM for SGLT2) in the presence or absence of compounds, the cells were incubated in a total volume of 100 μl at 37° C. for 90 min. Supernatant was removed by suction and discarded. Cells were washed and lysed by addition of 50 μl of water. After 10 min at room temperature, 200 μl of Micrsoscint 40 (Perkin Elmer) were added. The radioactivity was counted in a Topcount microplate scintillation counter (Perkin Elmer). The non-specific uptake was determined in sodium-free assay buffer (266 mM sucrose, 2 mM KCl, 1 mM CaCl2, 1 mM MgCl2, 10 mM HEPES, 5 mM Tris, adjusted to pH 7.4 using 1 M KOH).

SGLT1 = molecular target: T2, SGLT1 (Homo sapiens, UniProt P13866); experiment: 14C-AMG uptake in BHK cells transfected with SGLT1 (96-well cell-based assay); conditions: 50 μM AMG, 37° C., 90 min
T2 construct: expressed in transfected cells
T2 sequence (P13866 1-664): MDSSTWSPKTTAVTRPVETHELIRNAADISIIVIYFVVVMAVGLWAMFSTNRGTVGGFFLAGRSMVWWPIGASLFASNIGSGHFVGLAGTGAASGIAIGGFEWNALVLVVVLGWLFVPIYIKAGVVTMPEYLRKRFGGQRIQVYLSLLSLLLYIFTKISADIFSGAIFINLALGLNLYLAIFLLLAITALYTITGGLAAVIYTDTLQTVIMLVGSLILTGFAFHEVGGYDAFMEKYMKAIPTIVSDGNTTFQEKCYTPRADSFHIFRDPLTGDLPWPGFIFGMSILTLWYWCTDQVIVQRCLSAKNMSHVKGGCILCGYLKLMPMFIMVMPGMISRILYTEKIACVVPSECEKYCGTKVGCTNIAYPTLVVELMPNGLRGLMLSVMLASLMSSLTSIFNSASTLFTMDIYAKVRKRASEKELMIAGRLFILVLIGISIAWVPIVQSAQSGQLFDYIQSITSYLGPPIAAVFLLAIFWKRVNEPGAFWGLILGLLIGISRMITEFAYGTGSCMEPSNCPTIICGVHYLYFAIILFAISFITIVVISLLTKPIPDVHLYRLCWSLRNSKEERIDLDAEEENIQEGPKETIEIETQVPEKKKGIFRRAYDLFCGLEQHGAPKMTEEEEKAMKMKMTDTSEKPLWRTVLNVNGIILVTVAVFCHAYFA
Description: as §1
To construct the SGLT1 expression vector (KL225), the SLC5A1 gene (homologous to NM_000343) was amplified from a cDNA library using standard PCR technology and cloned over NheI/XhoI sites into the pcDNA3.1 expression vector (Invitrogen) containing neomycin as a selection marker. In this vector, transcription uses the enhancer/promoter of human cytomegalovirus.
as §2, with “KL225” for “KL224”
as §3, §4, §5

melting point [°C] | IC50 (SGLT2) [nM] | IC50 (SGLT1) [µM] | Structure (SMILES)
173 to 174 | 10 to 1000 | > 10 | COc1cc(C)c(-c2nc3ccc(F)cc3n2Cc2c(C)cccc2C)c(OCC(N)=O)c1 [Compound A1, 2-{2-[1-(2,6-dimethylbenzyl)-6-fluoro-1H-benzimidazol-2-yl]-5-methoxy-3-methylphenoxy}acetamide]
 | 1000 to 10000 | > 10 | COc1cc(C)c(-c2nc3cc(F)c(F)cc3n2Cc2c(C)cccc2C)c(OCC(N)=O)c1 [Compound A28, 2-{2-[1-(2,6-Dimethylbenzyl)-5,6-difluoro-1H-benzimidazol-2-yl]-5-methoxy-3-methylphenoxy}acetamide]
 | > 10000 | > 10 | Cc1cccc(C)c1Cn1c(-c2ccccc2OC(CO)C(N)=O)nc2ccccc21 (stereo not drawn) [Compound A27, 2-{2-[1-(2,6-Dimethylbenzyl)-1H-benzimidazol-2-yl]phenoxy}-3-hydroxypropionamide]
 | 10 to 1000 | > 10 | COc1cccc(OCC(N)=O)c1-c1nc2ccccc2n1Cc1c(C)cccc1C [Compound A15, 2-{2-[1-(2,6-Dimethylbenzyl)-1H-benzimidazol-2-yl]-3-methoxyphenoxy}acetamide]
 | > 10000 | > 10 | NC(=O)COc1ccccc1-c1nc2cc(Cl)ccc2n1Cc1c(Cl)cccc1Cl [Compound A18, 2-{2-[5-Chloro-1-(2,6-dichlorobenzyl)-1H-benzimidazol-2-yl]phenoxy}acetamide]
 | 1000 to 10000 | > 10 | NC(=O)COc1ccccc1-c1nc2cc(F)ccc2n1Cc1c(Cl)cccc1Cl [Compound A19, 2-{2-[1-(2,6-Dichlorobenzyl)-5-fluoro-1H-benzimidazol-2-yl]phenoxy}acetamide]
 | 1000 to 10000 | > 10 | NC(=O)COc1ccccc1-c1nc2ccccc2n1Cc1c(F)cccc1Cl [Compound A20, 2-{2-[1-(2-Chloro-6-fluorobenzyl)-1H-benzimidazol-2-yl]phenoxy}acetamide]
 | 10 to 1000 | > 10 | Cc1cccc(C)c1Cn1c(-c2ccc(F)cc2OCC(N)=O)nc2ccccc21 [Compound A17, 2-{2-[1-(2,6-Dimethylbenzyl)-1H-benzimidazol-2-yl]-5-fluorophenoxy}acetamide]
 | > 10000 | > 10 | Cc1cccc(C)c1C(=O)n1c(-c2ccccc2OCC(N)=O)nc2ccccc21 [Compound A25, 2-{2-[1-(2,6-Dimethylbenzoyl)-1H-benzimidazol-2-yl]phenoxy}acetamide]
 | 10 to 1000 | > 10 | Cc1cccc(C)c1Cn1c(-c2ccccc2OCC(N)=O)nc2ccccc21 [Compound A2, 2-{2-[1-(2,6-dimethylbenzyl)-1H-benzimidazol-2-yl]-phenoxy}acetamide]

Reference: patent US8119675B2, “Benzimidazole derivatives” (Merck Patent GmbH, priority 2007, dated 2012)
